Measured values: patent US20230036041A1, “SORTILIN BINDING CONJUGATE COMPOUNDS, COMPOSITIONS AND USES THEREOF FOR TREATING CANCER” (THERATECHNOLOGIES INC., priority 2019, published 2023)
Where two headings read alike, the source gives them in different places. Non-standard residues stand in square brackets, D forms with d. Residues, ends and D or L forms follow the SMILES beside them. *: point of attachment. X1 = CC(=O)O[C@@]12CO[C@@H]1C[C@H](O)[C@@]1(C)C(=O)[C@H](O)C3=C(C)[C@@H](OC(=O)[C@H](OC(=O)CCC(=O)*)[C@@H](NC(=O)OC(C)(C)C)c4ccccc4)C[C@@](O)([C@@H](OC(=O)c4ccccc4)[C@H]21)C3(C)C; Nle = CCCC[C@H](N)C(=O)O

Legend:
[1] = test system: MDA-MB-231 breast cancer cells; experiment: cells; type: cell-based, human; conditions: read-out: IC50 value, anti-proliferative activity
Protocol: In vitro testing of the TH19P01 peptide and the TH1902 conjugate compound was conducted.

[2] = assessment of neutropenia in treated mice; type: in vivo; conditions: athymic mice; for neutrophil counts: docetaxel 15 mg/kg/week or TH1902 at equivalent dose, up to 6 treatments, FIG. 11
Protocol: 15 young adult, female, homozygous athymic mice (Crl:CD1-Foxn1^nu, 4-6 weeks of age) received 6 consecutive treatments of docetaxel or TH1902 (at equivalent dose of docetaxel (15 mg/kg/week)). […] This level continued to decrease as the administration of docetaxel continued.

[3] = mouse plasma levels after IV bolus injection; type: in vivo, mice
Protocol: In addition, TH1902 and docetaxel mouse plasma levels were assessed in TH1902-treated mice.

[4] = test system: AN3-CA endometrial xenograft tumor; type: in vivo, mice
Protocol: (§1) Briefly, stock solution of formulated TH1902 was prepared as sterile aliquots of 10 mg/mL frozen liquid solutions (see below). On the day of animal dosing, frozen aliquots were thawed 30 minutes at room temperature then diluted with sterile 5% dextrose injection, USP (D5W) to the desired concentration for injection (i.e. typically 5.4 or 1.35 mg/mL).
(§2) TH1902 frozen stock solution were prepared as follow: • 1. Make the TH1902 diluent solution (Diluent) the day before the solubilization. Diluent: 10% Tween™ 80 in D5W USP (w/v) with 0.04% of formic acid (v/v), ˜pH 2.9. Leave solution at room temperature until TH1902 solubilization (next day). • 2. Weigh 60 mg of TH1902 API into a 14 ml glass vial with screw caps. Adjust TH1902 weights to reflect TH1902 purity according to the certificate of analysis. • 3. Add 90% of diluent solution needed to prepare the TH1902 10 mg/ml stock solution. • 4. Swirl the content of the bottle to form opaque mixture and place a stir bar. • 5. Place bottle in the heating apparatus (glass water bath and mount for holding vial with thermometer and stir bar on a digital heating plate). Begin mixing the content of the bottle. • 6. […] Transfer the formulation to a graduated glass cylinder and bring to final calculated volume with diluent solution. • 9. […] Perform UPLC analysis against a TH1902 standard curve for quantification and purity assessment. • 11. […]
Three human sortilin-positive gynecological cancer cell lines (ovary: ES-2 and SKOV-3/Luc, endometrial: AN3-CA) were used for to assess the chemotherapeutic activity of TH1902 in vivo using xenograft models in immunodeficient mice. […] Body weights of the mice administered with docetaxel, TH1902 or vehicle were monitored as a gross indicator of morbidity.
The effect of TH1902 or docetaxel on the endometrial AN3-CA xenograft tumor model is shown on FIG. 24. […] In FIG. 24B effects of TH1902 and docetaxel on tumor progression at day-14 are presented by subtracting the initial tumor volumes at day-0 to the tumor volumes measured at day 14. […]

[5] = test system: HT29 colorectal xenograft tumors; experiment: colorectal cancer xenograft model (HT-29); type: in vivo, mice; conditions: low and high doses, −20% endpoint limit
Protocol: as §1, §2

[6] = test system: murine B16-F10 cancer cells; experiment: syngeneic melanoma tumor model (B16-F10); type: in vivo, mice; conditions: for body weights, dose-response study: equivalent doses, −20% endpoint limit
Protocol: as §1
TH1902 frozen stock solution were prepared as follow: • 1. Make the TH1902 diluent solution (Diluent) the day before the solubilization. Diluent: 10% Tween™ 80 in D5W USP (w/v) with 0.04% of formic acid (v/v), ˜pH 2.9. Leave solution at room temperature until TH1902 solubilization (next day). • 2. Weigh 60 mg of TH1902 API into a 14 ml glass vial with screw caps. Adjust TH1902 weights to reflect TH1902 purity according to the certificate of analysis. • 3. Add 90% of diluent solution needed to prepare the TH1902 10 mg/ml stock solution. • 4. Swirl the content of the bottle to form opaque mixture and place a stir bar. • 5. Place bottle in the heating apparatus (glass water bath and mount for holding vial with thermometer and stir bar on a digital heating plate). Begin mixing the content of the bottle. • 6. Gradually increase the temperature of water bath in increments of 5° C. every 30 minutes until mixture turns clear (temperature ramping up to 45° C. over a period of time of about 165 to 180 minutes). Record water bath temperature every 15 minutes. • 7. Leave at room temperature for 30 minutes with gentle swirling (cool down). Measure pH. Adjust pH to 4.3±0.2 using dilute NaOH (0.1 N or less). • 8. Transfer the formulation to a graduated glass cylinder and bring to final calculated volume with diluent solution. • 9. Transfer back into the 14 ml glass vial and mix slowly for 5 minutes at room temperature. Measure pH. pH should be 4.3±0.2. • 10. Filter sterilize with a PES 0.22 μm membrane into a new and sterile 14 ml glass vial. Check the pH again. Perform UPLC analysis against a TH1902 standard curve for quantification and purity assessment. • 11. Freeze aliquots of TH1902 stock solution at −80° C. (0.5 mL per aliquot in 4 mL glass vials).
For the syngeneic B16-F10 melanoma tumor model, normal immunocompetent mice were implanted subcutaneously with murine B16-F10 cancer cells. […]
For FIG. 28A, immunocompetent mice bearing B16-F10 xenografts were repeatedly injected intravenously (arrows indicate injection days) with vehicle or with vehicle containing equivalent of docetaxel (15 mg/kg/week) or TH1902 (35 mg/kg/week). In FIG. 28B, the effects of TH1902 and docetaxel on tumor progression at day-14 are presented by subtracting the initial tumor volumes at day-0 to the tumor volumes measured at day-14 when tumors of the vehicle group reached the endpoint limits. […]

Row | Structure (SMILES) | IC50 [1] [nM] | weight loss ([2]; TH1902 at equivalent dose of docetaxel 15 mg/kg/week) | neutrophil counts [2] | concentration of docetaxel released from TH1902 in plasma ([3]; mouse plasma, IV bolus injection 50 mg/kg TH1902) | plasma concentration of TH1902 ([3]; mouse plasma, IV bolus injection 50 mg/kg TH1902, FIG. 12) | body weights ([4]; MTD for docetaxel, TH1902 containing the equivalent quantity of docetaxel) | body weights [5] | mouse body weights, first study ([6]; TH1902 35 mg/kg/week) | body weights, dose-response study [6] | IC50 ([1]; Homo sapiens) [nM] | docetaxel concentration that can be measured in plasma ([3]; administered as a free drug) | tumor growth, high dose ([4]; equivalent dose of docetaxel 15 mg/kg/week (TH1902 35 mg/kg/week), halved after 2 cycles) | body weights ([4]; mouse, in vivo) | tumor growth at the highest dose, dose-response study ([6]; TH1902 23 mg/kg/bi-weekly, docetaxel 10 mg/kg/bi-weekly)
1 | CCCC[C@H](NC(=O)[C@H](CC(N)=O)NC(=O)[C@H](CCCNC(=N)N)NC(=O)[C@@H](NC(=O)CNC(=O)[C@H](C)NC(=O)[C@H](CCCCNC(=O)CCC(=O)O[C@@H](C(=O)O[C@H]1C[C@@]2(O)[C@@H](OC(=O)c3ccccc3)[C@@H]3[C@]4(OC(C)=O)CO[C@@H]4C[C@H](O)[C@@]3(C)C(=O)[C@H](O)C(=C1C)C2(C)C)[C@@H](NC(=O)OC(C)(C)C)c1ccccc1)NC(=O)[C@H](C)NC(=O)[C@H](CCCNC(=N)N)NC(=O)[C@@H](NC(=O)CNC(C)=O)C(C)C)C(C)C)C(=O)N[C@@H](Cc1ccccc1)C(=O)N[C@@H](CCCCNC(=O)CCC(=O)O[C@@H](C(=O)O[C@H]1C[C@@]2(O)[C@@H](OC(=O)c3ccccc3)[C@@H]3[C@]4(OC(C)=O)CO[C@@H]4C[C@H](O)[C@@]3(C)C(=O)[C@H](O)C(=C1C)C2(C)C)[C@@H](NC(=O)OC(C)(C)C)c1ccccc1)C(=O)N[C@@H](CO)C(=O)N[C@@H](CCC(=O)O)C(=O)N[C@@H](CO)C(=O)N[C@@H](Cc1ccc(O)cc1)C(=O)O [TH1902, Acetyl-GVRAK(docetaxel)AGVRN(Nle)FK(docetaxel)SESY] (Ac-GVRAK(X1)AGVRN[Nle]FK(X1)SESY-OH) | 0.19 ± 0.09 | no weight loss was observed | no apparent change in the neutrophil counts | very low concentration | high plasma concentration | retained a fairly constant weight | within the acceptable range | without having an impact on mouse body weights | within the acceptable range | – | – | – | – | –
2 | CC(=O)O[C@@]12CO[C@@H]1C[C@H](O)[C@@]1(C)C(=O)[C@H](O)C3=C(C)[C@@H](OC(=O)[C@H](O)[C@@H](NC(=O)OC(C)(C)C)c4ccccc4)C[C@@](O)([C@@H](OC(=O)c4ccccc4)[C@H]21)C3(C)C [docetaxel] | – | – | sharp drop in neutrophil levels | – | – | – | within the acceptable range | – | within the acceptable range | 0.56 ± 0.19 | 15-20% | complete arrest tumor growth arrest | greater evidence of weight loss | only a minor impact on tumor growth
